For one data set, the system named is L444P GC. Briefly: intact cell GC activity assay in homozygous L444P GC patient-derived fibroblasts. It counts as cell-based, human. As to conditions: for L444P GC activity, screen of VGCC blockers, ionotropic glutamate receptor inhibitors and other calcium channel blockers: intact cell GC activity assay, only the named compounds increased activity; for L444P GC activity, screen of fifteen thermosensitive TRP channel modulators: intact cell GC enzyme assay, 5-d incubation, Figure S1, only the named compound increased activity; for maximum increase in L444P GC activity: 30 μM; for effect on L444P GC activity: 0.3–100 μM.

The subject of the next data set is Ca^2+ channel. Conditions: previously reported; read-out: Ca^2+ channel blocker IC50; cited from earlier work.
The next data set has as its system L444P fibroblasts. As to the kind of experiment: cytotoxicity to L444P fibroblasts. Conditions: high concentrations (>10 μM). It counts as cell-based, human.
For another data set, the system named is ΔF508 CFTR. As to conditions: SERCA inhibitor; cited from earlier work.
The mark [1] stands for this setting: 7 d, intact cell assay, Figure 3D.

Each structure is given as a SMILES string.

The term IC50 denotes the point on the concentration scale where inhibition reaches its midpoint.

Take `O=C(O)c1cc(=O)c2c(Cl)cc(Cl)cc2[nH]1` [5,7-dichlorokynurenic acid]: in the data set with L444P GC, the “L444P GC activity, screen of VGCC blockers, ionotropic glutamate receptor inhibitors and other calcium channel blockers” value is “only diltiazem and verapamil”.

With `CCOC(=O)C(N)/C=C(\C)CP(=O)(O)O` (stereo not shown) [CGP 39551], the “L444P GC activity, screen of VGCC blockers, ionotropic glutamate receptor inhibitors and other calcium channel blockers” value in the data set on L444P GC was “only diltiazem and verapamil”.

In the case of `NCCOB(c1ccccc1)c1ccccc1` [Compound 2-APB, 2-APB], the “L444P GC activity, screen of fifteen thermosensitive TRP channel modulators” value in the data set with L444P GC was “Only ruthenium red notably increased”.

As to `COc1ccc([C@@H]2Sc3ccccc3N(CCN(C)C)C(=O)[C@@H]2O)cc1` [Compound 2], the “maximum increase of L444P lysosomal GC activity” value in the data set on L444P GC (10 μM, 7 d, intact cell assay, Figure 3D) stood at 2.1 fold.

In the case of `CN(C)CCN1C(=O)[C@H](O)[C@H](c2ccc(O)cc2)Sc2ccccc21` [Compound 3], the “maximum increase in L444P GC activity” value with L444P GC (setting [1]) is given as 1.3 fold. In addition, the IC50 in the data set with Ca^2+ channel is 45.5 µM.

Consider `CNCCN1C(=O)[C@H](O)[C@H](c2ccc(O)cc2)Sc2ccccc21` [Compound 4], for which, in the data set on L444P GC (setting [1]), the “maximum increase in L444P GC activity” value is given as 1.2 fold. Besides, the IC50 in the data set on Ca^2+ channel is 127 µM.

Take `CCCCCCCCCC(=O)O[C@@H]1[C@@H](C)[C@@]2(O)[C@@H](C=C(CO)C[C@@]3(O)C(=O)C(C)=C[C@@H]23)[C@@H]2C(C)(C)[C@]12OC(=O)CCCCCCCCC` [Compound 4α-PDD, 4α-PDD]: the “L444P GC activity, screen of fifteen thermosensitive TRP channel modulators” value in the data set on L444P GC was “Only ruthenium red notably increased”.

Consider `COc1ccc([C@@H]2Sc3ccccc3NC(=O)[C@@H]2OC(C)=O)cc1` [Compound 5], for which the “toxicity to L444P fibroblasts” value with L444P fibroblasts was “toxic”. Also, in the data set on L444P GC (setting [1]), the “effect on L444P GC activity” value is given as “do not increase L444P GC activity”.

On to `COc1ccc([C@@H]2Sc3ccccc3NC(=O)[C@@H]2O)cc1` [Compound 6], for which the “toxicity to L444P fibroblasts” value in the data set with L444P fibroblasts was “toxic”. For the same compound, the “effect on L444P GC activity” value with L444P GC (setting [1]) is recorded as “do not increase L444P GC activity”.

With `O=[N+]([O-])c1cc2nc(O)c(O)nc2cc1[N+](=O)[O-]` [DNQX], the “L444P GC activity, screen of VGCC blockers, ionotropic glutamate receptor inhibitors and other calcium channel blockers” value in the data set with L444P GC is “only diltiazem and verapamil”.

As to `Cc1cc(-c2ccc(/N=N/c3ccc4c(S(=O)(=O)O)cc(S(=O)(=O)O)c(N)c4c3O)c(C)c2)ccc1/N=N/c1ccc2c(S(=O)(=O)O)cc(S(=O)(=O)O)c(N)c2c1O` [Evans blue], in the data set with L444P GC, the “L444P GC activity, screen of VGCC blockers, ionotropic glutamate receptor inhibitors and other calcium channel blockers” value was “only diltiazem and verapamil”.

`COc1ccc(CCCOC(Cn2ccnc2)c2ccc(OC)cc2)cc1` (stereo not shown) [SKF 96365]: in the data set with L444P GC, the “L444P GC activity, screen of VGCC blockers, ionotropic glutamate receptor inhibitors and other calcium channel blockers” value was “only diltiazem and verapamil”.

On to `C=CCN=C=S` [allylisothiocyanate], for which, in the data set with L444P GC, the “L444P GC activity, screen of fifteen thermosensitive TRP channel modulators” value is “Only ruthenium red notably increased”.

For `CCCCc1oc2ccccc2c1C(=O)c1cc(I)c(OCCN(CC)CC)c(I)c1` [amiodarone], the “L444P GC activity, screen of VGCC blockers, ionotropic glutamate receptor inhibitors and other calcium channel blockers” value with L444P GC was “only diltiazem and verapamil”.

On to `CCCCC/C=C\C/C=C\C/C=C\C/C=C\CCCC(=O)NCCO` [anandamide], for which, in the data set with L444P GC, the “L444P GC activity, screen of fifteen thermosensitive TRP channel modulators” value is listed as “Only ruthenium red notably increased”.

Turning to `CC(C)COCC(CN(Cc1ccccc1)c1ccccc1)N1CCCC1` (stereo not shown) [bepridil], in the data set on L444P GC, the “L444P GC activity, screen of VGCC blockers, ionotropic glutamate receptor inhibitors and other calcium channel blockers” value was “only diltiazem and verapamil”.

Regarding `CC12CCC(CC1=O)C2(C)C` (stereo not shown) [camphor], the “L444P GC activity, screen of fifteen thermosensitive TRP channel modulators” value in the data set with L444P GC was “Only ruthenium red notably increased”.

Regarding `COc1cc(CNC(=O)CCCC/C=C/C(C)C)ccc1O` [capsaicin], the “L444P GC activity, screen of fifteen thermosensitive TRP channel modulators” value in the data set with L444P GC is given as “Only ruthenium red notably increased”.

For `Oc1cc2c(cc1O)CN(C(=S)NCCc1ccc(Cl)cc1)CCC2` [capsazepine], the “L444P GC activity, screen of fifteen thermosensitive TRP channel modulators” value in the data set on L444P GC is recorded as “Only ruthenium red notably increased”.

For `O=C/C=C/c1ccccc1` [cinnamaldehyde], the “L444P GC activity, screen of fifteen thermosensitive TRP channel modulators” value with L444P GC was “Only ruthenium red notably increased”.

With `COc1cc(/C=C/C(=O)CC(=O)/C=C/c2ccc(O)c(OC)c2)ccc1O` [curcumin], the “folding and trafficking of ΔF508 CFTR” value in the data set on ΔF508 CFTR was “enhance folding and trafficking of ΔF508 CFTR”.

In the case of `CCC1(C)CC(=O)NC1=O` (stereo not shown) [ethosuximide], the “L444P GC activity, screen of VGCC blockers, ionotropic glutamate receptor inhibitors and other calcium channel blockers” value in the data set with L444P GC was “only diltiazem and verapamil”.

Take `CC12CCC(CC1)C(C)(C)O2` [eucalyptol]: the “L444P GC activity, screen of fifteen thermosensitive TRP channel modulators” value in the data set on L444P GC was “Only ruthenium red notably increased”.

Take `NC(=O)OCC(COC(N)=O)c1ccccc1` [felbamate]: the “L444P GC activity, screen of VGCC blockers, ionotropic glutamate receptor inhibitors and other calcium channel blockers” value in the data set with L444P GC was “only diltiazem and verapamil”.

Regarding `Fc1ccc(C(c2ccc(F)cc2)N2CCN(C/C=C/c3ccccc3)CC2)cc1` [flunarizine], in the data set with L444P GC, the “L444P GC activity, screen of VGCC blockers, ionotropic glutamate receptor inhibitors and other calcium channel blockers” value is “only diltiazem and verapamil”.

Take `O=C1NC(c2cccc([N+](=O)[O-])c2)=CCN1c1ccccc1O` [icilin]: the “L444P GC activity, screen of fifteen thermosensitive TRP channel modulators” value with L444P GC is listed as “Only ruthenium red notably increased”.

For the compound `CN(C)C(=O)C(CCN1CCC(O)(c2ccc(Cl)cc2)CC1)(c1ccccc1)c1ccccc1` [loperamide], the “L444P GC activity, screen of VGCC blockers, ionotropic glutamate receptor inhibitors and other calcium channel blockers” value in the data set on L444P GC is “only diltiazem and verapamil”.

Take `CC1CCC(C(C)C)C(O)C1` (stereo not shown) [menthol]: the “L444P GC activity, screen of fifteen thermosensitive TRP channel modulators” value in the data set with L444P GC is “Only ruthenium red notably increased”.

For the compound `COCC(=O)O[C@]1(CCN(C)CCCc2nc3ccccc3[nH]2)CCc2cc(F)ccc2[C@@H]1C(C)C` [mibefradil], the “L444P GC activity, screen of VGCC blockers, ionotropic glutamate receptor inhibitors and other calcium channel blockers” value with L444P GC is “only diltiazem and verapamil”.

For the compound `COCCOC(=O)C1=C(C)NC(C)=C(C(=O)OC(C)C)C1c1cccc([N+](=O)[O-])c1` (stereo not shown) [nimodipine], in the data set with L444P GC, the “L444P GC activity, screen of VGCC blockers, ionotropic glutamate receptor inhibitors and other calcium channel blockers” value is “only diltiazem and verapamil”.

With `CCCCCCCC/C=C\CCCCCCCC(=O)NCc1ccc(O)c(OC)c1` [olvanil], the “L444P GC activity, screen of fifteen thermosensitive TRP channel modulators” value with L444P GC is listed as “Only ruthenium red notably increased”.

Take `O=C(/C=C/C=C/c1ccc2c(c1)OCO2)N1CCCCC1` [piperine]: in the data set on L444P GC, the “L444P GC activity, screen of fifteen thermosensitive TRP channel modulators” value is “Only ruthenium red notably increased”.

On to `C=C(C)[C@]12C[C@@H](C)[C@@]34O[C@](Cc5ccccc5)(O[C@@H]1[C@@H]3C=C(COC(=O)Cc1ccc(O)c(OC)c1)C[C@]1(O)C(=O)C(C)=C[C@@H]41)O2` [resiniferatoxin], for which, in the data set with L444P GC, the “L444P GC activity, screen of fifteen thermosensitive TRP channel modulators” value was “Only ruthenium red notably increased”.

As for `N.N.N.N.N.N.N.N.N.N.N.N.N.N.[Cl-].[Cl-].[Cl-].[Cl-].[Cl-].[Cl-].[O-2].[O-2].[Ru+3].[Ru+3].[Ru+4]` [ruthenium red], the “L444P GC activity, screen of fifteen thermosensitive TRP channel modulators” value in the data set on L444P GC is reported as “notably increased”.

For the compound `C/C=C(/C)C(=O)O[C@H]1C(C)=C2[C@H]([C@@H]1OC(=O)CCCCCCC)[C@@](C)(OC(C)=O)C[C@H](OC(=O)CCC)[C@@]1(O)[C@H]2OC(=O)[C@@]1(C)O` [thapsigargin], in the data set with ΔF508 CFTR, the “folding and trafficking of ΔF508 CFTR” value is “enhance folding and trafficking of ΔF508 CFTR”. Besides, in the data set on L444P GC (Figure S4), the “L444P GC folding, trafficking, or lysosomal activity” value was “does not enhance L444P GC folding, trafficking, or lysosomal activity”. For the same compound, the “influence on L444P GC activity at higher concentration” value in the data set with L444P GC (alone, above 1 nM, 7-d incubation, Figure S4) is recorded as “decreased L444P GC activity significantly”. For the same compound, the “influence on L444P GC activity at low concentration” value with L444P GC (alone, until 1 nM, 7 d, Figure S4) is “no influence on GC activity”. Moreover, the “L444P GC activity on co-application with diltiazem” value with L444P GC (varying concentrations with 10 μM diltiazem, 7 d, Figure S4) is reported as “dose-dependent decrease of GC activity”.

Values taken from PMC2225441, “Partial Restoration of Mutant Enzyme Homeostasis in Three Distinct Lysosomal Storage Disease Cell Lines by Altering Calcium Homeostasis” (PLoS Biology, 2008).
